Experimental data: patent US20240409536A1, “COMPOUNDS AND METHODS FOR MODULATING SPLICING” (REMIX THERAPEUTICS INC., priority 2021, published 2024)
Counter-ions that a name gives are not always drawn.

Tested on: MYB mRNA
Assay: Gene panel canonical junction qPCR assay, MYB CJ mRNA decrease
Assay type: cell-based, human
Settings: Homo sapiens, canonical junction qPCR, read-out: MYB IC50 (decrease in CJ mRNA levels)
In short: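 A673 or K562 cells were treated with compound, and lysates underwent cDNA synthesis and qPCR with a CY5 5′-nuclease probe or primer spanning the canonical exon junction. ΔCt versus GAPDH, GUSB or PPIA was normalized to DMSO (2^(−ΔΔCt)), converted to percentage response and fitted four-parameter logistic for IC50.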

SMILES | IC50
CN[C@@H]1CCN(c2ccc(C(=O)Nc3cc(F)c4nc(C)cn4c3)c3nccnc23)C1 (single isomer, unassigned) [Compound 193, N-{8-fluoro-2-methylimidazo[1,2-a]pyridin-6-yl}-8-[3-(methylamino)pyrrolidin-1-yl]quinoxaline-5-carboxamide] | 100 to 1000 nM
CN[C@H]1CCN(c2ccc(C(=O)Nc3cc(F)c4nc(C)cn4c3)c3nccnc23)C1 (single isomer, unassigned) [Compound 194, N-{8-fluoro-2-methylimidazo[1,2-a]pyridin-6-yl}-8-[3-(methylamino)pyrrolidin-1-yl]quinoxaline-5-carboxamide] | < 100 nM
Cc1cn2nc(NC(=O)c3ccc(N4CCNCC4)c4ccnnc34)cc(C)c2n1 [Compound 100] | 100 to 1000 nM
Cc1cn2cc(NC(=O)c3ccc(N4CCNC5(CC5)C4)c4ccnnc34)cc(F)c2n1 [Compound 105] | 100 to 1000 nM
Cc1cn2cc(NC(=O)c3ccc(N4C[C@H]5CC[C@@H](C4)N5)c4ccnnc34)cc(F)c2n1 [Compound 108] | 100 to 1000 nM
Cc1cn2nc(NC(=O)c3ccc(N4CCNCC4)c4ccnnc34)cc2c(C)n1 [Compound 123] | 1000 to 10000 nM
Cc1cn2cc(NC(=O)c3ccc(N4CCNCC4)c4ccnnc34)cc(C)c2n1 [Compound 125] | 100 to 1000 nM
O=C(Nc1cn[nH]c1)c1ccc(N2CCNCC2)c2ccnnc12 [Compound 126] | > 10000 nM
Cc1cn2cc(NC(=O)c3ccc(N4CCN(C)CC4)c4ccnnc34)cc(F)c2n1 [Compound 127] | 100 to 1000 nM
Cc1cn2cc(NC(=O)c3ccc(N4CCNC(C)C4)c4ccnnc34)cc(F)c2n1 (stereo not drawn) [Compound 128] | < 100 nM
CCC1CN(c2ccc(C(=O)Nc3cc(F)c4nc(C)cn4c3)c3nnccc23)CCN1 (stereo not drawn) [Compound 130] | < 100 nM
Cc1cn2cc(NC(=O)c3ccc(N4CC5(CNC5)C4)c4ccnnc34)cc(F)c2n1 [Compound 131] | 100 to 1000 nM
Cc1cn2cc(NC(=O)c3ccc(N4CCC(N5CCCC5)C4)c4ccnnc34)cc(F)c2n1 (stereo not drawn) [Compound 133] | 1000 to 10000 nM
Cc1cn2cc(NC(=O)c3ccc(N4CCC(N(C)C)C4)c4ccnnc34)cc(F)c2n1 (stereo not drawn) [Compound 134] | 100 to 1000 nM
Cc1cn2cc(NC(=O)c3ccc(N4CCC(N(C)C)CC4)c4ccnnc34)cc(F)c2n1 [Compound 137] | < 100 nM
Cc1cn2cc(NC(=O)c3ccc(N4CCC(NC(C)(C)C)CC4)c4ccnnc34)cc(F)c2n1 [Compound 138] | 100 to 1000 nM
Cc1cn2cc(NC(=O)c3ccc(C4CCN(C)CC4)c4ccnnc34)cc(F)c2n1 [Compound 140] | 100 to 1000 nM
CCN1CCC(c2ccc(C(=O)Nc3cc(F)c4nc(C)cn4c3)c3nnccc23)CC1 [Compound 141] | 100 to 1000 nM
Cc1cn2cc(NC(=O)c3ccc(N4CCN[C@H](C)C4)c4ccnnc34)cc(F)c2n1 [Compound 146] | < 100 nM
Cc1cn2cc(NC(=O)c3ccc(N4CCN(C)[C@H](C)C4)c4ccnnc34)cc(F)c2n1 [Compound 149] | < 100 nM
Cc1cn2cc(NC(=O)c3ccc(N4CCN(C)[C@@H](C)C4)c4ccnnc34)cc(F)c2n1 [Compound 150] | 100 to 1000 nM
CC[C@@H]1CN(c2ccc(C(=O)Nc3cc(F)c4nc(C)cn4c3)c3nnccc23)CCN1 [Compound 151] | < 100 nM
CC[C@H]1CN(c2ccc(C(=O)Nc3cc(F)c4nc(C)cn4c3)c3nnccc23)CCN1 [Compound 152] | 100 to 1000 nM
Cc1cn2cc(NC(=O)c3ccc(N4CCN5CCC[C@@H]5C4)c4ccnnc34)cc(F)c2n1 [Compound 153] | < 100 nM

SMILES | IC50
Cc1cn2cc(NC(=O)c3ccc(N4CCN5CCC[C@H]5C4)c4ccnnc34)cc(F)c2n1 [Compound 154] | 100 to 1000 nM
Cc1cn2cc(NC(=O)c3ccc(N4C[C@H]5C[C@@H]4C5N(C)C)c4ccnnc34)cc(F)c2n1 (stereo partly drawn) [Compound 155] | 1000 to 10000 nM
Cc1cn2cc(NC(=O)c3ccc(N(C)[C@@H]4C[C@H]5CC[C@@H](C4)N5)c4ccnnc34)cc(F)c2n1 [Compound 156] | 1000 to 10000 nM
Cc1cc2c(N3CCNCC3)ccc(C(=O)Nc3cc(F)c4nc(C)cn4c3)c2nn1 [Compound 159] | < 100 nM
Cc1cn2cc(NC(=O)c3ccc(N4C[C@@H](C)N[C@@H](C)C4)c4ccnnc34)cc(F)c2n1 [Compound 161, 5-(3,5-dimethylpiperazin-1-yl)-N-{8-fluoro-2-methylimidazo[1,2-a]pyridin-6-yl}cinnoline-8-carboxamide 2,2,2-trifluoroacetate] | < 100 nM
Cc1ccc2c(N3CCNCC3)ccc(C(=O)Nc3cc(F)c4nc(C)cn4c3)c2n1 [Compound 162, N-{8-fluoro-2-methylimidazo[1,2-a]pyridin-6-yl}-2-methyl-5-(piperazin-1-yl)quinoline-8-carboxam-ide, trifluoroacetic acid] | < 100 nM
CC(=O)c1cc(NC(=O)c2ccc(N3CCNCC3)c3ccnnc23)cn2cc(C)nc12 [Compound 163, N-{8-acetyl-2-methylimidazo[1,2-a]pyridin-6-yl}-5-(piperazin-1-yl)cinnoline-8-carboxamide] | 1000 to 10000 nM
Cc1cn2cc(NC(=O)c3ccc(N4CCNCC4)c4ccnnc34)nc(C)c2n1 [Compound 164, N-{2,8-dimethylimidazo[1,2-a]pyrazin-6-yl}-5-(piperazin-1-yl)cinnoline-8-carboxamide 2,2,2-trifluoroacetate] | 100 to 1000 nM
Cc1cn2cc(NC(=O)c3ccc(N4CCNCC4)c4cccnc34)cc(F)c2n1 [Compound 165, N-{8-fluoro-2-methylimidazo[1,2-a]pyridin-6-yl}-5-(piperazin-1-yl)quinoline-8-carboxamide] | < 100 nM
Cc1cn2cc(NC(=O)c3ccc(N4CCNCC4)c4nnccc34)cc(F)c2n1 [Compound 166, N-(8-fluoro-2-methylimidazo[1,2-a]pyridin-6-yl)-8-(piperazin-1-yl)cinnoline-5-carboxamide 2,2,2-trifluoroacetate] | > 10000 nM
Cc1cn2cc(NC(=O)c3ccc(N4CCNCC4)c4ccnnc34)cc(C#N)c2n1 [Compound 167, N-{8-cyano-2-methylimidazo[1,2-a]pyridin-6-yl}-5-(piperazin-1-yl)cinnoline-8-carboxamide trifluoroacetic acid salt] | 100 to 1000 nM
CCc1cc(NC(=O)c2ccc(N3CCNCC3)c3ccnnc23)nn2cc(C)nc12 [Compound 168, N-{8-ethyl-2-methylimidazo[1,2-b]pyridazin-6-yl}-5-(piperazin-1-yl)cinnoline-8-carboxamide trifluoroacetic acid salt] | 1000 to 10000 nM
COc1ccc2c(N3CCNCC3)ccc(C(=O)Nc3cc(F)c4nc(C)cn4c3)c2n1 [Compound 169, N-{8-fluoro-2-methylimidazo[1,2-a]pyridin-6-yl}-2-methoxy-5-(piperazin-1-yl)quinoline-8-carboxamide] | < 100 nM
Cc1cn2cc(NC(=O)c3ccc(N4C[C@@H](C)N[C@@H](C)C4)c4ccnnc34)nc(C)c2n1 [Compound 172, N-{2,8-dimethylimidazo[1,2-a]pyrazin-6-yl}-5-[(3R,5S)-3,5-dimethylpiperazin-1-yl]cinnoline-8-carboxamide] | 100 to 1000 nM
COCCOc1ccc2c(N3CCNCC3)ccc(C(=O)Nc3cc(F)c4nc(C)cn4c3)c2n1 [Compound 173, N-{8-fluoro-2-methylimidazo[1,2-a]pyridin-6-yl}-2-(2-methoxyethoxy)-5-(piperazin-1-yl)quinoline-8-carboxamide] | < 100 nM
COc1cc(NC(=O)c2ccc(N3CCNCC3)c3ccnnc23)cn2cc(C)nc12 [Compound 176, N-{8-methoxy-2-methylimidazo[1,2-a]pyridin-6-yl}-5-(piperazin-1-yl)cinnoline-8-carboxamide trifluoroacetate] | 100 to 1000 nM
Cc1cn2cc(NC(=O)c3ccc(N4CCNCC4)c4ccnnc34)[nH]c(=O)c2n1 [Compound 177, N-{2-methyl-8-oxo-7H-imidazo[1,2-a]pyrazin-6-yl}-5-(piperazin-1-yl)cinnoline-8-carboxamide trifluoroacetic acid salt] | 100 to 1000 nM
Cc1nc(NC(=O)c2ccc(N3CCNCC3)c3ccnnc23)cc2cn(C)nc12 [Compound 178, N-{2,7-dimethylpyrazolo[3,4-c]pyridin-5-yl}-5-(piperazin-1-yl)cinnoline-8-carboxamide] | 100 to 1000 nM
COc1nc(NC(=O)c2ccc(N3CCNCC3)c3ccnnc23)cn2cc(C)nc12 [Compound 179, N-{8-methoxy-2-methylimidazo[1,2-a]pyrazin-6-yl}-5-(piperazin-1-yl)cinnoline-8-carboxamide] | < 100 nM
Cc1c(O)c(NC(=O)c2ccc(N3CCNCC3)c3ccnnc23)cc2cn(C)nc12 [Compound 181, N-(6-hydroxy-2,7-dimethylindazol-5-yl)-5-(piperazin-1-yl)cinnoline-8-carboxamide] | 100 to 1000 nM
Cc1cn2cc(NC(=O)c3ccc(N4CCNCC4)c4ccnnc34)cc(C(C)O)c2n1 (stereo not drawn) [Compound 182, N-[8-(1-hydroxyethyl)-2-methylimidazo[1,2-a]pyridin-6-yl]-5-(piperazin-1-yl)cinnoline-8-carboxamide trifluoroacetate] | > 10000 nM
COc1cc2c(N3CCNCC3)ccc(C(=O)Nc3cc(F)c4nc(C)cn4c3)c2nn1 [Compound 183, N-{8-fluoro-2-methylimidazo[1,2-a]pyridin-6-yl}-3-methoxy-5-(piperazin-1-yl)cinnoline-8-carboxamide] | < 100 nM
Cc1cn2cc(NC(=O)c3ccc(N4C[C@@H](C)N[C@@H](C)C4)c4nccnc34)cc(F)c2n1 [Compound 186, 8-(3,5-dimethylpiperazin-1-yl)-N-{8-fluoro-2-methylimidazo[1,2-a]pyridin-6-yl}quinoxaline-5-carboxamide] | < 100 nM
Cc1cn2cc(NC(=O)c3ccc(N4CCN[C@@H](C)C4)c4nccnc34)cc(F)c2n1 [Compound 187, N-{8-fluoro-2-methylimidazo[1,2-a]pyridin-6-yl}-8-(3-methylpiperazin-1-yl) quinoxaline-5-carboxamide] | < 100 nM
